In ChEMBL document CHEMBL3616440, “Non-basic azolotriazinone MCHR1 antagonists for the treatment of obesity: An empirical brain-exposures-driven candidate selection for in vivo efficacy studies” (Bioorg Med Chem Lett, 2015):

Tests used:
[1] = target: Melanin-concentrating hormone receptor 1 (Rattus norvegicus, UniProt P97639); test: Displacement of [125I][Phe13,Tyr19]-MCH from rat MCHR1 by scintillation counting analysis
[2] = target: T1, Melanin-concentrating hormone receptor 1 (Homo sapiens, UniProt Q99705); test: Displacement of [125I][Phe13,Tyr19]-MCH from human MCHR1 expressed in HEK293 cells by scintillation counting analysis; type: cell-based
T1 sequence (Q99705 whole entry): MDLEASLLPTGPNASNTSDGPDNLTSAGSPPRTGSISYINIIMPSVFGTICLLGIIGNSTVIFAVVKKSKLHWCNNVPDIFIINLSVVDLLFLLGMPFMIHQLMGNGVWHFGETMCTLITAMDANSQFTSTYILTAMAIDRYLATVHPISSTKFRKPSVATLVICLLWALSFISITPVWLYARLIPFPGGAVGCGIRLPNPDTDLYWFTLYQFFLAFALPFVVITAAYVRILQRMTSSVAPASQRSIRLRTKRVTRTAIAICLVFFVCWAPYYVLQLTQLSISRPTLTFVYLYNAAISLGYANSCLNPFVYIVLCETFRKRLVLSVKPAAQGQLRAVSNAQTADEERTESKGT

[3] = system: Plasma; test: Plasma concentration in Sprague-Dawley rat assessed as 6-(4-chlorophenyl)-3-(4-((3S,4R)-3,4-dihydroxypyrrolidin-1-yl)-3-methoxyphenyl)pyrrolo[1,2-f][1,2,4]triazin-4(3H)-one level at 10 mg/kg, po qd at 8 hrs; type: ADME, organism-based; conditions: in vivo
[4] = system: Brain; test: Drug concentration in Sprague-Dawley rat brain assessed as 6-(4-chlorophenyl)-3-(4-((3S,4R)-3,4-dihydroxypyrrolidin-1-yl)-3-methoxyphenyl)pyrrolo[1,2-f][1,2,4]triazin-4(3H)-one level at 10 mg/kg, po qd at 8 hrs; type: ADME, organism-based; conditions: in vivo, read-out: Drug uptake
[5] = system: Nucleic Acid; test: Ratio of drug level in Sprague-Dawley rat brain to plasma assessed as 6-(4-chlorophenyl)-3-(4-((3S,4R)-3,4-dihydroxypyrrolidin-1-yl)-3-methoxyphenyl)pyrrolo[1,2-f][1,2,4]triazin-4(3H)-one level at 10 mg/kg, po qd; type: ADME, organism-based
[6] = target: T2, Voltage-gated inwardly rectifying potassium channel KCNH2 (Homo sapiens, UniProt Q12809); test: Inhibition of human ERG expressed in CHO cells assessed as channel current by Q-patch electrophysiological assay; type: cell-based
T2 sequence (Q12809 whole entry): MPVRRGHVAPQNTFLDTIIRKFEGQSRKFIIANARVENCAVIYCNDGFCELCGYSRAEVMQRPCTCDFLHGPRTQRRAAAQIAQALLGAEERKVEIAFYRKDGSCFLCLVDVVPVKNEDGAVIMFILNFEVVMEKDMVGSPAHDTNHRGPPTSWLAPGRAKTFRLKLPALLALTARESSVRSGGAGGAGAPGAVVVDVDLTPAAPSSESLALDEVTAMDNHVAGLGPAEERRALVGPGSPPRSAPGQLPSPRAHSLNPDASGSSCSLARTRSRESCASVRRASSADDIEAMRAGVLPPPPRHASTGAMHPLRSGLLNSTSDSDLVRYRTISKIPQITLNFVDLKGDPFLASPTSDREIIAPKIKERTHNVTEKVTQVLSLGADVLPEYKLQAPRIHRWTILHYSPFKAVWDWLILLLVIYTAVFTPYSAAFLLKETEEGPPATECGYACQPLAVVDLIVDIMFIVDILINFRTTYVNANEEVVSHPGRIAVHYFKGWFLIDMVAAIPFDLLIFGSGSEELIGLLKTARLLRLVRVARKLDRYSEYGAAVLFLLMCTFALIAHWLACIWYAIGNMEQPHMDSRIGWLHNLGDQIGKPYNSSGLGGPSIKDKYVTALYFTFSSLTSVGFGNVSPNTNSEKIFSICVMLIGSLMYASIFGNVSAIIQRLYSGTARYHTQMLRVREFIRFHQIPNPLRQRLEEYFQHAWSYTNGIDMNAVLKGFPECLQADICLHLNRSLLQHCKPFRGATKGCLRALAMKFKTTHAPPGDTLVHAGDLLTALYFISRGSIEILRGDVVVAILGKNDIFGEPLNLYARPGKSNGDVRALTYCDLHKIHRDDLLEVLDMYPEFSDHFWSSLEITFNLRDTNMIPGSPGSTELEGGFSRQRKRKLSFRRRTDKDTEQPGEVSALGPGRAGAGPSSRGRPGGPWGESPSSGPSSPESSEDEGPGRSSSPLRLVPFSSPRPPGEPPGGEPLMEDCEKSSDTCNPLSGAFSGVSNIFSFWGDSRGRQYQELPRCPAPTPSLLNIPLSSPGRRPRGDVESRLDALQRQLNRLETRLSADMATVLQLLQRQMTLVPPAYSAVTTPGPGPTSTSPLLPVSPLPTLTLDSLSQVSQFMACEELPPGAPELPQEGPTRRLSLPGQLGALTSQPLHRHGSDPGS

[7] = target: T2, Voltage-gated inwardly rectifying potassium channel KCNH2; test: Inhibition of human ERG by flux assay
[8] = target: T1, Melanin-concentrating hormone receptor 1; test: Antagonist activity at human MCHR1 expressed in HEK293 cells assessed as inhibition of MCH-induced Ca2+ influx for 120 mins by FLIPR assay; type: functional, cell-based
[9] = system: Liver; test: Drug level in oral-dosed Sprague-Dawley rat liver treated with (2S)-1-(4-(6-(4-chlorophenyl)-4-oxopyrrolo[1,2-f][1,2,4]triazin-3(4H)-yl)-2-methoxyphenoxy)propan-2-yl 2-amino-3-methylbutanoate; type: ADME, tissue-based; conditions: in vivo
[10] = system: Plasma; test: Plasma concentration in Sprague-Dawley rat assessed as 6-(4-chlorophenyl)-3-(4-((3,3-difluoro-1-hydroxycyclobutyl)methoxy)-3-methoxyphenyl)pyrrolo[1,2-f][1,2,4]triazin-4(3H)-one level at 10 mg/kg, po qd at 8 hrs; type: ADME, organism-based; conditions: in vivo
[11] = system: Brain; test: Drug concentration in Sprague-Dawley rat brain assessed as 6-(4-chlorophenyl)-3-(4-((3,3-difluoro-1-hydroxycyclobutyl)methoxy)-3-methoxyphenyl)pyrrolo[1,2-f][1,2,4]triazin-4(3H)-one level at 10 mg/kg, po qd at 8 hrs; type: ADME, organism-based; conditions: in vivo, read-out: Drug uptake
[12] = system: Nucleic Acid; test: Ratio of drug level in Sprague-Dawley rat brain to plasma assessed as 6-(4-chlorophenyl)-3-(4-((3,3-difluoro-1-hydroxycyclobutyl)methoxy)-3-methoxyphenyl)pyrrolo[1,2-f][1,2,4]triazin-4(3H)-one level at 10 mg/kg, po qd; type: ADME, organism-based
[13] = system: Rattus norvegicus; test: Drug level in oral-dosed Sprague-Dawley rat treated with 1-(4-(6-(4-chlorophenyl)-4-oxothieno[3,2-d]pyrimidin-3(4H)-yl)-2-methoxyphenoxy)-2-methylpropan-2-yl 2-aminoacetate; type: ADME, organism-based; conditions: in vivo
[14] = system: Plasma; test: Plasma concentration in Sprague-Dawley rat assessed as (S)-6-(4-chlorophenyl)-3-(4-(3-(ethylsulfonyl)-2-hydroxypropoxy)-3-methoxyphenyl)pyrrolo[1,2-f][1,2,4]triazin-4(3H)-one level at 10 mg/kg, po qd at 8 hrs; type: ADME, organism-based; conditions: in vivo
[15] = system: Brain; test: Drug concentration in Sprague-Dawley rat brain assessed as (S)-6-(4-chlorophenyl)-3-(4-(3-(ethylsulfonyl)-2-hydroxypropoxy)-3-methoxyphenyl)pyrrolo[1,2-f][1,2,4]triazin-4(3H)-one level at 10 mg/kg, po qd at 8 hrs; type: ADME, organism-based; conditions: in vivo, read-out: Drug uptake
[16] = system: Nucleic Acid; test: Ratio of drug level in Sprague-Dawley rat brain to plasma assessed as (S)-6-(4-chlorophenyl)-3-(4-(3-(ethylsulfonyl)-2-hydroxypropoxy)-3-methoxyphenyl)pyrrolo[1,2-f][1,2,4]triazin-4(3H)-one level at 10 mg/kg, po qd; type: ADME, organism-based
[17] = target: hERG (KCNH2) (Homo sapiens, UniProt Q12809); test: Inhibition of human ERG at 1 uM by flux assay
Sequence of hERG (KCNH2) (Q12809 whole entry): as above

[18] = system: Plasma; test: Plasma concentration in Sprague-Dawley rat assessed as (R)-6-(4-chlorophenyl)-3-(4-(3-hydroxypyrrolidin-1-yl)-3-methoxyphenyl)pyrrolo[1,2-f][1,2,4]triazin-4(3H)-one level at 10 mg/kg, po qd at 8 hrs; type: ADME, organism-based; conditions: in vivo
[19] = system: Brain; test: Drug concentration in Sprague-Dawley rat brain assessed as (R)-6-(4-chlorophenyl)-3-(4-(3-hydroxypyrrolidin-1-yl)-3-methoxyphenyl)pyrrolo[1,2-f][1,2,4]triazin-4(3H)-one level at 10 mg/kg, po qd at 8 hrs; type: ADME, organism-based; conditions: in vivo, read-out: Drug uptake
[20] = system: Nucleic Acid; test: Ratio of drug level in Sprague-Dawley rat brain to plasma assessed as (R)-6-(4-chlorophenyl)-3-(4-(3-hydroxypyrrolidin-1-yl)-3-methoxyphenyl)pyrrolo[1,2-f][1,2,4]triazin-4(3H)-one level at 10 mg/kg, po qd; type: ADME, organism-based
[21] = system: Plasma; test: Plasma concentration in Sprague-Dawley rat assessed as 6-(5-chloropyridin-2-yl)-3-(4-(2-cyclopropyl-2-hydroxyethoxy)-3-methoxyphenyl)pyrrolo[1,2-f][1,2,4]triazin-4(3H)-one level at 10 mg/kg, po qd at 8 hrs; type: ADME, organism-based; conditions: in vivo
[22] = system: Brain; test: Drug concentration in Sprague-Dawley rat brain assessed as 6-(5-chloropyridin-2-yl)-3-(4-(2-cyclopropyl-2-hydroxyethoxy)-3-methoxyphenyl)pyrrolo[1,2-f][1,2,4]triazin-4(3H)-one level at 10 mg/kg, po qd at 8 hrs; type: ADME, organism-based; conditions: in vivo, read-out: Drug uptake
[23] = system: Nucleic Acid; test: Ratio of drug level in Sprague-Dawley rat brain to plasma assessed as 6-(5-chloropyridin-2-yl)-3-(4-(2-cyclopropyl-2-hydroxyethoxy)-3-methoxyphenyl)pyrrolo[1,2-f][1,2,4]triazin-4(3H)-one level at 10 mg/kg, po qd; type: ADME, organism-based

Sequence of Melanin-concentrating hormone receptor 1 (Rattus norvegicus, UniProt P97639) (P97639 whole entry): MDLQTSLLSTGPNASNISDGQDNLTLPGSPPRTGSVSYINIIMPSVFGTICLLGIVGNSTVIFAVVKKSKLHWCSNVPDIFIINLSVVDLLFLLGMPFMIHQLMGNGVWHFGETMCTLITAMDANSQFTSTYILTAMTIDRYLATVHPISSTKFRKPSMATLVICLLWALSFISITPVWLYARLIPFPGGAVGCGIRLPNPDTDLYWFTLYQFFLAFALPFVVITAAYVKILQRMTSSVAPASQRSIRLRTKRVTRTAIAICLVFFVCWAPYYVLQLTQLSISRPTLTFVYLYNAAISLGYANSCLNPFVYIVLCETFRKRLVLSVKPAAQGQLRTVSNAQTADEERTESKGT

SMILES	Ki [1] [nM]	Ki [2] [nM]	further results
COc1cc(-n2cnn3cc(-c4ccc(Cl)cc4)cc3c2=O)ccc1OCC(C)O (stereo unspecified)	1.4		
COc1cc(-n2cnn3nc(-c4ccc(Cl)cc4)cc3c2=O)ccc1OCC(O)C1CC1 (stereo unspecified)	13	13	
COc1cc(-n2cnn3cc(-c4ccc(Cl)cc4)cc3c2=O)ccc1N1C[C@H](OC(=O)[C@@H](N)C(C)C)[C@H](OC(=O)[C@@H](N)C(C)C)C1			concentration [3]: 272 nM; concentration [4]: 210 nM; BPR [5]: 0.77
O=c1c2cc(-c3ccc(Cl)cc3)cn2ncn1-c1ccc(N2CCC(O)CC2)nc1	18	12	IC50 [6]: > 10 µM; IC50 [7]: > 80 µM
CCS(=O)(=O)C[C@@H](O)COc1ccc(-n2cnn3cc(-c4ncc(Cl)cn4)cc3c2=O)cc1OC	23	28	
COc1cc(-n2cnn3cc(-c4ccc(Cl)cc4)cc3c2=O)ccc1OCC(C)(C)O	1.8	2.3	IC50 [8]: 44 nM
COc1cc(-n2cnn3cc(-c4ccc(Cl)cc4)cc3c2=O)ccc1N1C[C@@H](O)[C@@H](O)C1	2.3	3.1	IC50 [8]: 5000 nM
COc1cc(-n2cnn3cc(-c4ccc(Cl)cc4)nc3c2=O)ccc1OCC(O)C1CC1 (stereo unspecified)	18	26	
COc1cc(-n2cnn3cc(-c4ccc(Cl)cc4)cc3c2=O)ccc1OCC(O)C(=O)O (stereo unspecified)			Drug metabolism [9]: metabolite_detected
COc1cc(-n2cnn3cc(-c4ccc(Cl)cc4)cc3c2=O)ccc1OCC1(OC(=O)CN)CC(F)(F)C1			concentration [10]: 477 nM; concentration [11]: 2380 nM; BPR [12]: 0.6
COc1cc(-n2cnn3cc(-c4ncc(Cl)cn4)cc3c2=O)ccc1OCC1(O)CC(F)(F)C1	7.9	9	
COc1cc(-n2cnn3cc(-c4ncc(Cl)cn4)cc3c2=O)ccc1OCC(O)C1CC1 (stereo unspecified)	15	17	
COc1cc(-n2cnn3cc(-c4ccc(Cl)cn4)cc3c2=O)ccc1N1CC[C@@H](O)C1	9.6	9.1	
CCS(=O)(=O)C[C@@H](O)COc1ccc(-n2cnn3cc(-c4ccc(Cl)cc4)cc3c2=O)cc1OC	1.5	2.4	
O=c1c2cc(-c3ccc(Cl)cc3)cn2ncn1-c1ccc(N2CC(O)C2)nc1	14	15	IC50 [7]: 3.3 µM
COc1ccc(-n2cnn3cc(-c4ccc(Cl)cc4)nc3c2=O)cc1OC	87	76	
CCS(=O)(=O)C[C@@H](O)COc1ccc(-n2cnn3cc(-c4ccc(Cl)cn4)cc3c2=O)cc1OC	8.7	15	
COc1ccc(-n2cnn3cc(-c4ccc(Cl)cc4)cc3c2=O)cc1OC	8	21	
O=c1c2cc(-c3ccc(Cl)cc3)cn2ncn1-c1ccc(N2CCC(N3CC(O)C3)C2)nc1 (stereo unspecified)	1.4	0.8	IC50 [7]: 2 µM
COc1cc(-n2cnn3cc(-c4ccc(Cl)cc4)cc3c2=O)ccc1OCC(O)CO (stereo unspecified)			Drug metabolism [9]: metabolite_detected

SMILES	Ki [1] [nM]	Ki [2] [nM]	further results
COc1cc(-n2cnc3cc(-c4ccc(Cl)cc4)sc3c2=O)ccc1OCC(C)(O)CO (stereo unspecified)			Drug metabolism [13]: metabolite_detected
O=c1c2cc(-c3ccc(Cl)cn3)cn2ncn1-c1ccc(N2CC[C@@H](O)C2)nc1	54	124	
CCS(=O)(=O)C[C@H](COc1ccc(-n2cnn3cc(-c4ccc(Cl)cc4)cc3c2=O)cc1OC)OC(=O)CN			concentration [14]: 1830 nM; concentration [15]: 175 nM; BPR [16]: 0.1
CNC1CCN(c2ccc(-n3cnn4cc(-c5ccc(Cl)cc5)cc4c3=O)cn2)C1 (stereo unspecified)	0.3	0.4	
COc1cc(-n2cnn3cc(-c4ccc(Cl)cn4)cc3c2=O)ccc1OCC(O)C1CC1 (stereo unspecified)	12	13	
O=c1c2cc(-c3ccc(Cl)cc3)cn2ncn1-c1ccc(N2CC[C@@H](O)C2)nc1	5.5	5.3	inhibition at 1 µM [17]: 26%
COc1cc(-n2cnn3cc(-c4ccc(Cl)cn4)cc3c2=O)ccc1OC[C@H](O)C1CC1	12	6.5	
COc1cc(-n2cnn3cc(-c4ccc(Cl)cc4)nc3c2=O)ccc1OCCN1CCCC1	2.6	4.4	
COc1ccc(-n2cnn3nc(-c4ccc(Cl)cc4)cc3c2=O)cc1OC	106	86	
COc1cc(-n2cnn3cc(-c4ccc(Cl)cc4)cc3c2=O)ccc1N1CC[C@@H](O)C1	4.7	4.8	
COc1cc(-n2cnn3cc(-c4ccc(Cl)cc4)cc3c2=O)ccc1N1CC[C@@H](OC(=O)[C@@H](N)C(C)C)C1			concentration [18]: 339 nM; concentration [19]: 966 nM; BPR [20]: 2.9
COc1cc(-n2cnn3cc(-c4ccc(Cl)cn4)cc3c2=O)ccc1OCC(OC(=O)[C@@H](N)C(C)C)C1CC1 (stereo partly specified)			concentration [21]: 10.2 µM; concentration [22]: 2040 nM; BPR [23]: 0.2
COc1cc(-n2cnn3cc(-c4ccc(Cl)cc4)cc3c2=O)ccc1OCCN1CCCC1	0.4	0.5	IC50 [7]: 5.5 µM
COc1cc(-n2cnc3cc(-c4ccc(Cl)cc4)sc3c2=O)ccc1OCC(C)(O)C(=O)O (stereo unspecified)			Drug metabolism [13]: metabolite_detected
COc1cc(-n2cnn3cc(-c4ncc(Cl)cn4)cc3c2=O)ccc1OCC(C)(C)O	15	13	
COc1cc(-n2cnn3cc(-c4ccc(Cl)cn4)cc3c2=O)ccc1OCC1(O)CC(F)(F)C1	6.5	6.5	
COc1cc(-n2cnn3cc(-c4ccc(Cl)cc4)cc3c2=O)ccc1OCC1(O)CC(F)(F)C1	3.8	3.4	
COc1cc(-n2cnn3cc(-c4ccc(Cl)cc4)cc3c2=O)ccc1OCC(O)C1CC1 (stereo unspecified)		3.5	IC50 [8]: 300 nM
COc1cc(-n2cnn3nc(-c4ccc(Cl)cc4)cc3c2=O)ccc1OCCN1CCCC1	0.5	0.7	
